Results reported in patent US7815942B2, “Rasagiline formulations of improved content uniformity” (Teva Pharmaceutical Industries, Ltd., priority 2005, dated 2010).
Where two headings read alike, the source gives them in different places. Each block holds one molecule with its values, some of them ahead of it.

Assays:
[1] = Particle size distribution by Malvern laser diffraction (Mastersizer S); assay type: physicochemical; details: average of two measurements
Protocol: Many analytical tools are available to determine PSD. In the early development stage, the analysis of PSD was performed through microscopic and sieve analysis. Laser diffraction was chosen as the final analytical method for measuring the PSD. Because the large particles were of major concern, the important characteristics of the PSD were the d(0.9), which is the size, in microns, below which 90% of the particles by volume are found, and the d(0.1), which is the size, in microns, below which 10% of the particles by volume are found.
R(+)PAI mesylate samples before milling contain large, irregular, plate-shaped particles of various sizes (See FIG. 1). PSDs of four different batches were measured before milling and after milling. The PSDs were measured using Malvern Laser Diffraction, using the Mastersizer S model. Laser diffraction relies on the fact that diffraction angle of light is inversely proportional to particle size. Properties of particles are measured and interpreted as measurements of a sphere (a sphere being the only shape that can be described by one unique number). In addition, laser diffraction calculates a particle size distribution based around volume terms, thus eliminating particle count from the determination of particle size. The Masterizer S model measures particles using a single technique and a single range setting.
The values in the table represent averages of two measurements. Each measurement was taken after 3 minutes of recirculation with the speed control at the 14 hour position. The dilution medium was a 1% solution of dioctyl sulfosuccinate sodium salt in n-hexane. The concentration of drug substance used in the measurements was between 0.05% and 0.35% by volume. The results were confirmed with microscopic observation. For optical microscopy, an emulsion or suspension, diluted or undiluted, was mounted on a slide or ruled cell. The microscope eyepiece was fitted with a micrometer by which the size of the particles may be estimated.
D(0.1) is the particle size, in microns, below which 10% by volume distribution of the population is found, and d(0.9) is the particle size, in microns, below which 90% by volume distribution of the population is found. […]

[2] = compared with the microcrystalline form; cited from earlier work
[3] = 18-year study, subjects, cited from earlier work

d (0.1) after milling ([1]; listed as D197/197): 14 microns
d (0.9) after milling ([1]; listed as D197/197): 168 microns
d (0.1) before milling ([1]; listed as D197/197): 21 microns
d (0.9) before milling ([1]; listed as D197/197): 443 microns
SMILES: C#CCN[C@@H]1CCc2ccccc21.CS(=O)(=O)O [Batch D197/197]

d (0.1) after milling ([1]; listed as D211/212): 16 microns
d (0.9) after milling ([1]; listed as D211/212): 189 microns
d (0.1) before milling ([1]; listed as D211/212): 104 microns
d (0.9) before milling ([1]; listed as D211/212): 598 microns
SMILES: C#CCN[C@@H]1CCc2ccccc21.CS(=O)(=O)O [Batch D211/212]

d (0.1) after milling ([1]; listed as D222/223): 10 microns
d (0.9) after milling ([1]; listed as D222/223): 156 microns
d (0.1) before milling ([1]; listed as D222/223): 18 microns
d (0.9) before milling ([1]; listed as D222/223): 573 microns
SMILES: C#CCN[C@@H]1CCc2ccccc21.CS(=O)(=O)O [Batch D222/223]

d (0.1) after milling ([1]; listed as D297/297): 11 microns
d (0.9) after milling ([1]; listed as D297/297): 160 microns
d (0.1) before milling ([1]; listed as D297/297): 20 microns
d (0.9) before milling ([1]; listed as D297/297): 386 microns
SMILES: C#CCN[C@@H]1CCc2ccccc21.CS(=O)(=O)O [Batch D297/297]

SMILES: O=C1CN(/N=C/c2ccc([N+](=O)[O-])o2)C(=O)N1 [macrocrystalline form of Nitrofurantoin, Nitrofurantoin]
dissolution and absorption rates [2]: slower
serum concentrations [2]: lower
time to achieve peak concentration in urine [2]: takes longer
negative side effects (adverse events) such as nausea and gastro-intestinal problems ([3]; listed as macrocrystalline form): did not manifest

SMILES: O=C1CN(/N=C/c2ccc([N+](=O)[O-])o2)C(=O)N1 [microcrystalline form, Nitrofurantoin]
negative side effects (adverse events) such as nausea and gastro-intestinal problems [3]: produces negative side effects
